# Results from patent publication US5157032A, “Mixed ligand complexes and uses thereof as binding agents and probes to DNA” (The Trustees of Columbia University In The City of New York, priority 1990, dated 1992).
# Entries after “also recorded” stand apart in the source; their conditions may differ. Read-outs that look alike come from different tables or passages of the source.
# Key:
# calf thymus DNA [1] = assay: Equilibrium dialysis of racemic complexes against calf thymus DNA (Scatchard, dialysate CD); format: binding; set-up: Km × 10) equilibrium dialysis (intrinsic binding constant Kb): scale not given here; details: for Site size: fit to McGhee and von Hippel equation; for aggregation in solution / binding curve type (cooperativity) / binding affinity for DNA / Enantioselectivity: in words; for binding affinity for DNA: comparative; for Km × 10) equilibrium dialysis (intrinsic binding constant Kb): 5 mM Tris, 50 mM NaCl, pH 7.5, standard deviation in parentheses; for Enantioselectivity: dialysate circular dichroism
# Description: Equilibrium Dialysis: Equlibrium dialysis of the reacemic metal complexes was perforemd against calf-thymus DNA using procedures described previously. (74) The buffer used was 5 mM Tris, 50 mM NaCl at pH 7.5. Samples were agitated on a shaker bath during equilibration which occurred after three to five days, as determined by control samples containing no DNA. After equilibration, volumes of liquid inside and outside the dialysis bags were determined (approximately 1 and 3 mls, respectively) and circular dichroism of the dialysate was meaxured on a Jasco J-40 spectropolarimeter. Final ruthenium concentration inside and outside the bags were measured by visible absorbance. Data anaylsis was performed on a VAX-780 using non-linear least squares analysis.
# Equilibrium Dialysis: Equilibrium binding constants for the metal complexes with DNA may be determined classically by equilibrium dialysis. Calf thymus DNA was dialyzed against the series of mixed ligand complexes using a broad range of ruthenium concentrations. […] The results have been plotted according to Scatchard (88), where r is the ratio of bound metal to DNA-phosphate concentration, and cf is the concentration of free metal complex. The data were fit by non-linear least squares analysis to the McGhee and von Hippel equation (8945) governing random non-cooperative binding to a lattice,
# where r is the ratio of bound concentration of ruthenium to the concentration of DNA-phosphate, cf is the concentration of ruthenium free in soltuion, Kb the intrinsic binding constant, and the integer /, which measures the degree of anti-cooperativeity, is the size of a binding site in base pairs. The curves shown reflect the best fit after variation of two parameters: the intrinsic binding constant, Kb, and binding stie size, /. For those complexes were cooperatively was observed, the equation (89) incorporating a cooperativity parameter was used.
# Equilibrium dialysis experiments additionally offer the opportunity to examine any enantiomeric selectivities associated with binding. After dialysis of the DNA against the racemic mixture, optical activity observed in the dialysate refelects an enrichment in the dialysate in the less favored enantiomer. For most of the complexes, optical activity was found in the dialysate. Values for the extent of enantiomeric selectivity could not be quanitated in the absence of determinations of DE and assignments of absolute configuration. Assuming that the signs of the circular chroism in the ultraviolet ligand bands are the same for the these ligands as that for the parent phenanthroline complex, (90) we have assigned the absolute configuration of these complexes by comparison to spectra for enantiomers of Ru(phen)3^2+ and have compared levels of enantioselectivity qualitatively through measurements of circular dichroic intensity per rutheium bound. Based upon these assumptions, we find enantionmeric selectivities for the polyridyl complexes to reflect an enrichment in the isomer in the dialysate and the preferential binding of the isomer to the right-handed DNA. This observation is consistent with the preferential intercalation of isomers found earlier for Ru(phen)3^2+ in right-handed B-DNA. (63) We may also compare relative enantioselectivities for different ancillary ligands. […] The same comparison may be seen qualitatively between Ru(phen)2 DIP^2+ and Ru(bpy)2 DIP^2+.
# calf thymus DNA [2] = assay: Absorption titration with calf thymus DNA (half-reciprocal, hypochromism); format: binding; details: in words; for binding to DNA: absorption changes too small for Kb
# Text: In plots of [DNA]/(εA -εF) versus [DNA], Kb is given by the ratio of the slope to intercept.
# Solubility in buffer = format: physicochemical; details: for Solubilities in Buffer: chloride salts, 5 mM Tris, 50 mM NaCl, pH 7.5, 24 hrs., 25° C., SD in parentheses; for solubility: in words
# Description: Measurement of Solubilities: Solubilities of the compounds wre measured by preparing saturated solutions of metal complex in buffer (50mM NaCl, 5 mM Tris, pH 7.5) and allowng the suspensions to equilibrate for 24 hours at 25 C. After that time, the solutions were spun down in an Eppendorff microcentrifuge at 15,000 rev/min for 2 minutes and the supernatant was carefully removed by pipette. After dilution, the ruthenuim concentrattions were measured by UV-visible absorbance.
# calf thymus DNA [3] = assay: Spectroscopic properties (absorption, emission, lifetime) on binding to calf thymus DNA; details: for Emission Enchantment (I/Io): 7 μM Ru, 40:1 nucleotide/metal, 20° C.
# Description: Instrumentation: NMR spectra were recorded on a Varian VXR-300MHz spectormeter. FABS were performed using a VG Analytical 7070EQ Mas Spectrometer (78), and elemental analyses were done by Galbraith Laboratories in Nashville, Tenn. UV-Visible absorbance spectal were recorded on a Varian CARY-219 absorbance spectorphotometer. Extinction coefficients for the compounds were determined versus ruthenium concentrations obtained by atomic absorption spectroscopy with known ruthenium standards. [Ru(bpy)3 ]Cl2 solutions were also employed for these determinations as an internal standard. A varian AA-875 atomic absorption spectrophotometer was used for these determinations.
# Emission spectra were measured on a Perkin-Elmer LS-5 fluorescence spectrometer. The samples were excited at their corresponding isosbestic points. All the measurements were made at 20° C. in a thermostatted cuvette holder with 3 nm entrance slit and 10 nm exit slit. Ruthenium solutions employed were 7 μM in concentration and claf thymus DNA was added to a ration of 40:1 nucleotide/metal; ruthenuim-DNA soltuions were allowed to incubate for 15 minutes before enhanced spectra were recorded. The emission enhancement factors were measured by comparing the intensitites at the emission spectral mixima in the absence ad presence of DNA, under similar conditions.
# The limunescence lifetime measurements were done on a PRA SPC (single photon countining) spectometer with some minor modifications. The samples were excited with a nitrogen filled tnynratron gated flash lamp and the data were collected using a Tracor Northern 1710 multichannel analyser. The data were then transferred to a PDP-11/03 computer and deconvoluted with PRA software. […] concentrated solution of DNA (5mM DNA-phosphate) in buffer was added to a solution of the metal complex (4 μM) in buffer and allowed to equilibrate. Lifetimes of the samples were measured 0.5 hr after the metal complexes were mixed with DNA. All measurements were made at 20° C. and under air saturated conditions.
# Furthermore, for all the complexes, this electronic transition is perturbed on binding to DNA.
# B-form DNA = details: cited from earlier work
# pBR322 DNA = assay: Unwinding of supercoiled pBR322 DNA (topoisomerase I assay); details: for EC50: read-out: Unwinding concentration, needed to unwind 11 of 22 supercoils, [DNA] 47 μM for phi complexes, 31.5 μM others, 60 min
# DNA = assay: Luminescence in presence of DNA (preliminary); format: binding; details: in words
# Text: Ru(phen)2 (dppz)^2+, and Ru(dip)2 (dppz)^2+ seem have similar behavior as described above. […] We are presently tethering this complexes, Ru(bpy)2 (dppz)^2+, Ru(dppz)2 phen^2+, and Ru(phen)2 (dppz)^2+ to oligonucleotides to develop non-radioactive luminescent DNA probes for both heterogeneous and homogeneous assay systems. The probes, constructed in this way should luminesce only upon finding its target sequence.
# [4] = system: distamycin binding sites on end-labeled DNA fragment; assay: Footprinting of distamycin; details: by Rh(phi)2 (bpy)^3+, 5'-end-labeled fragment
# [5] = system: distamycin binding sites on end-labeled DNA fragment; details: cited crystallography; cited from earlier work
# [6] = system: EcoRI site on end-labeled DNA fragment; details: cited from earlier work
molecule,measurement,setting,value
[Ru+2].c1ccc(-c2ccnc3c2ccc2c(-c4ccccc4)ccnc23)cc1.c1ccc(-c2ccnc3c2ccc2c(-c4ccccc4)ccnc23)cc1.c1cnc2c(c1)ccc1cccnc12 [Ru(DIP)2 (phen)^2+],Site size,calf thymus DNA [1],cooperative
same,aggregation in solution,calf thymus DNA [1],tend to agfregate in solution
same,binding curve type (cooperativity),calf thymus DNA [1],cooperatiove binding
same,binding affinity for DNA,calf thymus DNA [1],binding similar to that of Ru(phen2 DIP^2+
same,hypochromism / absorption change on DNA addition,calf thymus DNA [2],greatest change in absorption
same,Solubilities in Buffer,Solubility in buffer,0.18 (.01) mM
same,solubility,Solubility in buffer; listed as Ru(DIP)2 (phen)2,only sparingly soluble in the buffer solution
same,solubility,Solubility in buffer; listed as Ru(DIP)2)phen)^2+,too insoluble
same,Emission Enchantment (I/Io),calf thymus DNA [3],2.14 I/Io
"[Ru+2].c1ccc(-c2ccnc3c2ccc2c(-c4ccccc4)ccnc23)cc1.c1ccc(-c2ccnc3c2ccc2c(-c4ccccc4)ccnc23)cc1.c1ccc(-c2ccnc3c2ccc2c(-c4ccccc4)ccnc23)cc1 [Ru(DIP)3^2+, reference compound]",aggregation in solution,calf thymus DNA [1],extensive aggregation
same,binding affinity for DNA,calf thymus DNA [1],appear to bind DNA more avidly
same,enantiomer selectively bound by B-form DNA,B-form DNA,Δ-enantiomers
[Ru+2].c1ccc(-c2ccccn2)nc1.c1ccc(-c2ccccn2)nc1.c1cnc2c(c1)ccc1cccnc12 [Ru(bpy)2 (phen)^2+],Km × 10) equilibrium dialysis (intrinsic binding constant Kb),calf thymus DNA [1],0.7(.07) × 10
same,Site size,calf thymus DNA [1],10-14 base pairs
same,hypochromism / absorption change on DNA addition,calf thymus DNA [2],litle hypochromic effect
same,binding to DNA,calf thymus DNA [2],bound very weakly
same,EC50,pBR322 DNA,69 µM
same,Emission Enchantment (I/Io),calf thymus DNA [3],1.12 I/Io
"[Ru+2].c1ccc(-c2ccccn2)nc1.c1ccc(-c2ccccn2)nc1.c1ccc(-c2ccccn2)nc1 [Ru(bpy)3^2+, reference compound]",Km × 10) equilibrium dialysis (intrinsic binding constant Kb),calf thymus DNA [1],0.7(.13) × 10
same,Site size,calf thymus DNA [1],6-12 base pairs
same,hypochromism / absorption change on DNA addition,calf thymus DNA [2],litle hypochromic effect
same,binding to DNA,calf thymus DNA [2],bound very weakly
same,unwinding of the helix,pBR322 DNA; in words,shows little significant unwinding of the helix
same,EC50,pBR322 DNA,650 µM
same,Emission Enchantment (I/Io),calf thymus DNA [3],1.06 I/Io
same,intercalation,calf thymus DNA [3]; in words,neither intercalates nor surface-binds to the helix
[Ru+2].c1ccc(-c2ccnc3c2ccc2c(-c4ccccc4)ccnc23)cc1.c1ccc(-c2ccnc3c2ccc2c(-c4ccccc4)ccnc23)cc1.c1ccc2nc3c4cccnc4c4ncccc4c3nc2c1 [Ru(dip)2 (dppz)^2+],luminescence dependence on DNA,DNA,luminesce only in the presence of DNA but not in the presence of H2 O (or Buffer) alone
[Ru+2].c1ccc(-c2ccnc3c2ccc2c(-c4ccccc4)ccnc23)cc1.c1cnc2c(c1)ccc1cccnc12.c1cnc2c(c1)ccc1cccnc12 [Ru(phen)2 (DIP)^2+],Site size,calf thymus DNA [1],cooperative
same,aggregation in solution,calf thymus DNA [1],tend to agfregate in solution
same,binding curve type (cooperativity),calf thymus DNA [1],cooperatiove binding
same,hypochromism / absorption change on DNA addition,calf thymus DNA [2],greatest change in absorption
same,Solubilities in Buffer,Solubility in buffer,9. (1.2) mM
same,solubility,Solubility in buffer,only sparingly soluble in the buffer solution
same,EC50,pBR322 DNA,9 µM
same,Emission Enchantment (I/Io),calf thymus DNA [3],2.06 I/Io
[Ru+2].c1ccc2nc3c4cccnc4c4ncccc4c3nc2c1.c1cnc2c(c1)ccc1cccnc12.c1cnc2c(c1)ccc1cccnc12 [Ru(phen)2 (dppz)^2+],luminescence dependence on DNA,DNA,luminesce only in the presence of DNA but not in the presence of H2 O (or Buffer) alone
"O=C1c2cccnc2-c2ncccc21.[Ru+2].c1cnc2c(c1)ccc1cccnc12.c1cnc2c(c1)ccc1cccnc12 [Ru(phen)2 (flone)^2+, [Ru(phen)2 (4,5-diazafuorene-9-one)]Cl2]",Enantioselectivity,calf thymus DNA [1],no enantiomeric discrimination is apparent
same,Enantioselectivity,calf thymus DNA [1]; listed as Ru(phen) (flone)Cl,none
same,Site size,calf thymus DNA [1],9-12 base pairs
same,binding affinity for DNA,calf thymus DNA [1],indistinguishable from that for Ru(phen)2 bpy^2+
same,binding affinity for DNA,calf thymus DNA [1]; listed as Ru(phen)^2+2. flone,much lower than would be expected based upon their solvent accessible surfaces
same,binding to DNA,calf thymus DNA [2],bound very weakly
same,Solubilities in Buffer,Solubility in buffer,60. (2.2) mM
N=C1C(=N)c2ccccc2-c2ccccc21.[Ru+2].c1cnc2c(c1)ccc1cccnc12.c1cnc2c(c1)ccc1cccnc12 [Ru(phen)2 (phi)^2+],Site size,calf thymus DNA [1],2-3 base pairs
same,intensity in circular dichroism per ruthenium bound,calf thymus DNA [1]; relative to Ru(bpy)2 phi^2+,more than three times greater
same,hypochromism / absorption change on DNA addition,calf thymus DNA [2],hypochromism and a large red shift
same,Solubilities in Buffer,Solubility in buffer,0.17 (.01) mM
same,Unwinding Angle,pBR322 DNA,26 °
same,Unwinding Angle,pBR322 DNA; per molecule of bound complex,26 degrees
same,EC50,pBR322 DNA,1.2 µM
"[Ru].c1cnc2c(c1)ccc1cccnc12.c1cnc2c(c1)ccc1cccnc12.c1cnc2c(c1)ccc1cccnc12 [Ru(phen)3^2+, reference compound]",Site size,calf thymus DNA [1],4 base pairs
same,Solubilities in Buffer,Solubility in buffer,159. (5.3) mM
same,Unwinding Angle,pBR322 DNA,19 °
same,Unwinding Angle,pBR322 DNA; per molecule of bound complex,19 degrees
same,EC50,pBR322 DNA,9 µM
same,enantiomer selectively bound by B-form DNA,B-form DNA,Δ-enantiomers
same,Emission Enchantment (I/Io),calf thymus DNA [3],1.87 I/Io
Cn1cc(NC(=O)c2cc(NC(=O)c3cc(NC=O)cn3C)cn2C)cc1C(=O)NCCC(=N)N [distamycin],distamycin binding sites footprinted,[4],"strong A6 binding site (41-47 bp); also recorded: AATT (67-70, 119-12), TAAT (73-76), AAATT (101-105), and TTAT (107-110)"
same,binding site size by crystal structure,[5],six
EcoRI: restriction endonuclease EcoRI,crystal binding site size,[6]; cited crystallography,ten
same,DNA contact length of EcoRI,[6]; x-ray co-crystal,10 base pairs
